These results are taken from patent publication US20040105875A1, “Composition containing a secondary or tertiary carbonyl amine, method of use thereof, compounds” (L'OREAL, priority 2002, published 2004).

Data set [1] relates to calcium flux (release of Ca2+) in HDFa cells obtained from skin fibroblasts. The data set is described as follows: Inhibition of calcium flux (IC50Ca2+) on cells obtained from skin fibroblasts HDFa. Type of data set: cell-based. The note with it: 50% inhibitory concentration for the release of Ca2+. The source says: (§1) In order for a substance to be recognized as a calcium-channel inhibitor, it must be able to reduce the intracellular calcium concentration or reduce the binding of calcium to intracellular proteins such as, for example, calmodulin, as is described especially by Galizzi, J. P. et al., J. Biol. Chem. 1987, 262 p. 6947; by Y. Okamiya et al., Eur. J. Pharmacol. 1991, 205, p. 49; by J. A. Wagner et al., J. Neurosci. 1988, 8, p. 3354; by H. R. Lee et al., Life Sci. 1984, 35, p. 721; by Schoemaker H. and Lauger S. Eur. J. Pharmacol. 1985, 111, p. 273 or I. J. Reynolds et al., J. Pharmacol. Exp. Ther. 1986, 237, p. 731.
(§2) According to the protocol indicated in these documents, the Assignee determined the IC50Ca2+ of inhibition of calcium flux for compounds (Ia), (IIa) to (IId), (IIIa) and (IIIb), in comparison with verapamil. IC50Ca2+ represents the 50% inhibitory concentration for the release of Ca^2+.
(In general: A change in cytosolic calcium serves as a functional read-out for many receptors and channels.)

Data set [2] relates to calcium flux (release of Ca2+) in SK-N-SH nerve cells. Description: Inhibition of calcium flux (IC50Ca2+) on nerve cells SK-N-SH. Type of data set: cell-based. The conditions noted are these: Homo sapiens, 50% inhibitory concentration for the release of Ca2+.
Source text: as §1, §2

In data set [3] the test system is normal human fibroblasts inserted into a fibrillar collagen gel (dermal equivalent). Description: Contraction of dermal equivalents (fibroblasts in fibrillar collagen gel), dermo-decontracting effect. Type of data set: cell-based. The source says: This model thus makes it possible to evaluate the relaxing potential of compounds by measuring the delay in contraction of the treated dermal equivalents relative to the control dermal equivalents prepared under the same conditions. Verapamil is used as reference molecule.
Dermal fibroblasts are isolated from human skin explants and cultured in MEM medium+additives (10% foetal calf serum, 1% glutamine, 1% non-essential amino acids, 1% sodium pyruvate, 1% Fungizone and 1% penicillin/streptomycin). The collagen used is obtained from a commercial solution. It is extracted from rat tails and stored in acidic medium at +4° C. It is dialysed beforehand against successive baths of acetic acid of decreasing concentration.
The mixture is homogenized cautiously, so as to obtain a distribution of the cells in the collagen matrix that is as uniform as possible. It is then distributed in each well of a 12-well culture dish at a rate of 2 ml/well. The final cell concentration is 3×10^4 cells/dermal equivalent with a final collagen concentration of 1 mg/ml.
The culture dishes are incubated at 37° C./5% CO2 so as to obtain polymerization and gelation of the collagen. The dermal equivalents thus treated adhere to the dishes and the cells are subjected to mechanical stresses that potentiate their contractile properties. The cells thus cultured in 3D end up under conditions close to those of the dermis. After culturing for three days under these “attached” conditions, the dermal equivalents are detached from their support by gentle agitation. […]
To do this, a digital image is acquired for each treated or untreated dermal equivalent using a camera (CCD camera—Iris Sony DXC -107P) and on each of them, the small (D1) and large (D2) diameters of the dermal equivalent are measured by computer. The surface area is calculated according to the formula for calculating an ellipse: S=(D1×D2×π)/4. […] The percentage of contraction is calculated according to the formula below, in which Si represents the surface area of the dermal equivalent at Ti: […]

For the next data set, the system named is fibroblasts. Description: Cytotoxicity check in the dermal equivalent test. It counts as cell-based, human.

As for `CCCCCC(O)(CCCCC)CCN(CC)CCC(=O)c1ccccc1` [Compound (IId), 3-[ethyl(3-hydroxy-3-pentyloctyl)amino]-1-phenylpropan-1-one], the IC50 in data set [1] is 4 µM; in data set [2] it was 3 µM.
For `CCCCCCCNCCC(=O)c1ccccc1` [Compound (IIc)] the same measures were 46 µM and 36 µM.
For `CCCCCC(=O)CCN(CC)CCC(=O)c1ccccc1` [Compound (IIa)] the same measures were 41 µM and 29 µM.
For the molecule `CN(CCC(=O)c1ccccc1)CCC(=O)c1ccccc1.Cl` [Compound (Ia)], in data set [3] (tested at 1 μm, after 4 days of contact with the fibroblasts), the “difference in the degree of contraction compared with control dermal equivalents” value was determined as 25%. Besides, the “cytotoxicity as cause of the decontracting effect” value in the data set on fibroblasts is “did not result from any cytotoxicity”. For the same molecule, in data set [2], the concentration for half-maximal inhibition (IC50) was 36 µM.
For `CCN(CCCc1ccccc1)CCCc1ccccc1` [alverine, reference compound], the “activity in the dermal equivalent contraction test” value in data set [3] (tested under the same conditions) is recorded as “no activity”. For the same molecule, the half-maximal inhibitory concentration (IC50) in data set [2] stood at 30 µM.
As for `COc1ccc(CCN(C)CCCC(C#N)(c2ccc(OC)c(OC)c2)C(C)C)cc1OC` (stereo not drawn) [verapamil], the “difference in the degree of contraction compared with control dermal equivalents” value in data set [3] (tested at 10 μM, same conditions (4 days of contact)) stood at 32%.
For `COc1cc(CNCCC(=O)c2ccccc2)ccc1O` [Compound (IIIa)], the IC50 in data set [1] turned out to be 30 µM; in data set [2] it was 41 µM.
As to `COc1ccc(CCN(C)CCC(=O)c2ccccc2)cc1OC` [Compound (IIIb)], the 50% inhibitory concentration (IC50) was found to be 6 µM in data set [1] and 14 µM in data set [2].
For `CCCCCCCN(C)CCC(=O)c1ccccc1` [Compound (IIb)], in that order: 31 µM and 26 µM.

One may read the IC50 as the concentration at which inhibition is half-maximal.
